In US11667919B2, “Targeting cancer-associated long non-coding RNAs” (University of Pittsburgh—Of the Commonwealth System of …, priority 2018, dated 2023):

Columns and labels:
Format in all cases: cell-based, human
Myc targets = assay: Myc target expression after knockdown (RNA-seq, qRT-PCR, western blot); conditions: LNA against EPIC1, MCF-7 cells
Procedure: For RNA interference, cells were transfected with 40 nM siRNA targeting EPIC1, Myc, or a control siRNA using Lipofectamine RNAiMAX (ThermoFisher, #13778150) per the manufacturer's instructions. Total RNA was isolated 72 hr later for real-time PCR analysis. The siRNA sequences are SEQ ID NOS: 4-6.
For LNA transfection, cells were transfected with 40 nM LNA oligos targeting EPIC1, and a scramble control using Lipofectamine™ RNAiMAX per the guidelines. The LNA oligos (e.g., SEQ ID NO: 9) were designed and synthesized from Exiqon.
RNA Isolation and Quantitative Real-Time PCR (qRT-PCR) Assays: Total RNA was isolated from cultured cells using an RNeasy Mini kit (Qiagen, #74104) according to the manufacturer's instructions. cDNAs were synthesized from […] of total RNA using a High-Capacity cDNA Reverse Transcription Kit (Applied Biosystems, #4368813). Real-time PCR was performed with Power SYBR Green PCR Master Mix (Applied Biosystems, #4367659) on a QuantStudio 6 Flex Real-Time PCR System (Applied Biosystems). Relative gene expression was determined by DDCt normalized to GAPDH.
Cell lysates were also treated with equal volume of 2× SDS sample buffer and resolved by SDS-PAGE under denaturing conditions and transferred onto PVDF membranes (Bio-Rad, #162-0177). […]

MCF-7 and ZR-75-1 cells = assay: Cell cycle assay (PI staining, flow cytometry); conditions: LNA against EPIC1, MCF-7 cells
Procedure: For the cell cycle assay, cells were collected, rinsed with PBS, and fixed for a minimum of 2 hr by adding 70% ice-cold ethanol at −20° C. Cells were then sequentially washed once in PBS and BD Pharmingen stain buffer (BD Biosciences, #554656). Cell pellets were resuspended in 0.5 ml of BD Pharmingen PI/RNase staining buffer (BD Biosciences, #550825) and incubated for 15 min at room temperature (RT), and cells were immediately analyzed using an LSRFORTESSA X-20 flow cytometer (BD Biosciences). The data were analyzed with FlowJo software.

[1] = test system: MCF-7, BT-474, ZR-75-1 and A549 cells; assay: MTT growth inhibition by BET inhibitors in EPIC1 knockdown or overexpressing cells; conditions: EPIC1 overexpression; MCF-7 and A549 cells
Procedure: For RNA interference, cells were transfected with 40 nM siRNA targeting EPIC1, or control siRNA using Lipofectamine RNAiMAX (Thermo Fisher, #13778150) per the manufacturer's instructions. For quantitative real-time PCR (qRT-PCR) analysis, total RNA was isolated 72 h later using an RNeasy Mini kit (Qiagen, #74104) according to the manufacturer's instructions; cDNAs were synthesized from 0.5 μg of total RNA using a High-Capacity cDNA Reverse Transcription Kit (Applied Biosystems, #4368813). qRT-PCR was performed with Power SYBR Green PCR Master Mix (Applied Biosystems, #4367659) on a QuantStudio 6 Flex Real-Time PCR System (Applied Biosystems). Relative gene expression was determined by ΔΔCt normalized to GAPDH.
Validation of IncRNA-drug predictive pairs in cell lines. MCF-7 cells (MCF-7/Vector and MCF-7/EPIC1) and A549 cells (A549/Vector and A549/EPIC1) stably expressing an empty vector and EPIC1 were established with retroviral particles using the previously published method. […]
The ectopic expression level of EPIC1 in stable cells was confirmed using PCR. […] The absorbance value was measured at 570 nm using an xMark Microplate Spectrophotometer (Bio-Rad) with a reference wavelength of 630 nm and the IC50 of JQ-1 and I-BET-762 on cells was calculated, respectively.

Compound	expression of Myc target genes (Myc targets)	cell-cycle analysis (MCF-7 and ZR-75-1 cells)	resistance to BET inhibitor promoted by EPIC1 [1]
LNA: LNA oligo targeting EPIC1, e.g. SEQ ID NO: 9 (5′-GTCGACTCCTGCCGGA-3′), designed and synthesized from Exiqon (LNA oligo from Exiqon, LNA positions not given here)	curtailed the expression of Myc target genes	significantly caused Gi arrest of MCF-7 cells	–
CCNC(=O)C[C@@H]1N=C(c2ccc(Cl)cc2)c2cc(OC)ccc2-n2c(C)nnc21 [iBET762, I-BET-762 (iBET762)]	–	–	strongly promotes iBET762 and JQ-1 resistance
(+)-JQ1 [JQ-1]	–	–	strongly promotes iBET762 and JQ-1 resistance
